Source: patent US20240091365A1, “BETA-GLUCURONIDE LINKER-PAYLOADS, PROTEIN CONJUGATES THEREOF, AND METHODS THEREOF” (priority 2022, published 2024)
Where two headings read alike, the source gives them in different places.

Assays:
MC38-hFolRα cells = assay: In vitro cell killing (cell proliferation assay, Cell Titer-Glo) on MC38-hFolRα cells; format: cell-based; details: for cell killing (in words): MC38-hFolRα cells (FolRα positive)
Excerpt: (§1) Anti-FolRα antibody conjugated to hemiasterlin with a cathepsin cleavable ValCit linker was used as control. FolRα negative A549 and MC38 cells were purchased from ATCC (American Type Culture Collection, Manassas, VA, USA), and FolRα positive Igrov1 cells were licensed from NCI (National Cancer Institute at Frederick, Maryland). MC38-hFolRα cells were generated at Sutro by stable transfection of a vector expressing human FolRa. All the cell lines were maintained in DMEM:F12 (1:1), high glucose (Corning, Corning, NY) supplemented with 10% heat-inactivated fetal bovine serum (Thermo Scientific, Grand Island, NY), 2 mM glutamax (Thermo Scientific, Grand Island, NY), and 1× Penicillin/Streptomycin (Corning, Corning, NY). Cytotoxicity effects of the ADCs were measured with a cell proliferation assay. A total of 625 cells for Igrov1 and A549, and 312 cells for MC38-hFolRα in a volume of 25 microliters were seeded in a 384-well flat bottom white polystyrene plate the day before the actual assay starts. ADCs were formulated at 2× starting concentration in cell culture medium and filtered through MultiScreen HTS 96-Well Filter Plates (Millipore, Billerica, Massachusetts). Filter sterilized samples were serial diluted (1:3) under sterile conditions and added onto cells in triplicate. Plates were cultured at 37° C. in a CO2 incubator for 120 hours for Igrov1 and A549, and 72 hours for MC38-hFolRα cells. For cell viability measurement, 30 microliters of Cell Titer-Glo® reagent (Promega Corp, Madison, WI) was added into each well, and plates were processed as per product instructions. Relative luminescence was measured on an ENVISION® plate reader (Perkin-Elmer; Waltham, MA). Relative luminescence readings were converted to % viability using untreated cells as controls. Data was fitted with non-linear regression analysis using log (inhibitor) vs. response, variable slope, and 4-parameter fit equation using GraphPad Prism.

Igrov1 cells = assay: In vitro cell killing (cell proliferation assay, Cell Titer-Glo) on FolRα positive Igrov1 cells; format: cell-based; details: for cell killing (in words): Igrov1 cells (FolRα positive)
Excerpt: as §1

A549 cells = assay: In vitro cell killing (cell proliferation assay, Cell Titer-Glo) on FolRα negative A549 cells; format: cell-based; details: for cell killing (in words): A549 cells (hFolRα negative)
Excerpt: as §1

E. coli β-Glucuronidase = E. coli β-Glucuronidase (Escherichia coli, UniProt P05804); assay: β-Glucuronidase reactivity: enzymatic cleavage of linker-payloads monitored by LCMS; format: in vitro ADME; details: 10 μM linker-payload, 300 U/mL enzyme, 50 mM sodium acetate, 37° C., release of (207) from (107), (201) from (108)
Protocol: The susceptibility of the β-glucuronide linker-payloads to enzymatic cleavage was evaluated by treatment of the (107) and (108) linker-payloads with β-glucuronidase, as shown in FIG. 3A-FIG. 3D. This assay allowed the confirmation of the expected release of Exatecan (207) and 3-amino hemiasterlin (201). The cleavage product was monitored using LCMS. 945 μL of 50 mM sodium acetate, 5 μL of 2 mM (107)/(108) linker-payloads stock (final conc.10 μM) and 50 μL of 6 KU/mL E. coli β-Glucuronidase in 0.2% NaCl (final conc.300 U/mL) were mixed and incubated at 37° C. Aliquots (50 μL) were taken at t=0 h, 0.5 h, 1 h, 2 h, 4 h and 24 h, treated with 3 volumes of quench solution (methanol:acetonitrile 5:95 v/v) and analyzed by LCMS.

E. coli β-Glucuronidase, sequence (P05804 whole entry): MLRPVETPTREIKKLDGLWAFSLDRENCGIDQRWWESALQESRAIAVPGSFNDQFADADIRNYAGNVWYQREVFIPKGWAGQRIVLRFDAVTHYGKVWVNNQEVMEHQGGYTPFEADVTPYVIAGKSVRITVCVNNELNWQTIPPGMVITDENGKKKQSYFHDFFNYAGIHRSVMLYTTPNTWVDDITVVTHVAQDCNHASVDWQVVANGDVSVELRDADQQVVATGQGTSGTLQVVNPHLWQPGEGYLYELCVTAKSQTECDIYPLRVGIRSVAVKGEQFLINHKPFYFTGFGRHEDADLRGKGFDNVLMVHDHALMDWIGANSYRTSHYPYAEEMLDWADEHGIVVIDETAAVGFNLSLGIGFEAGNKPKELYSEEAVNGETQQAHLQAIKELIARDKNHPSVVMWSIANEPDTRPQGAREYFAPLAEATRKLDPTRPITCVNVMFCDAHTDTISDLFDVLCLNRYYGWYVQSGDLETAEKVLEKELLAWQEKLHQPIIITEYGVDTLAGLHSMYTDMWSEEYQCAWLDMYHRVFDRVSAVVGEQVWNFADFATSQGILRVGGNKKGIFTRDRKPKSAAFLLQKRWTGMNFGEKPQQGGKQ

Q: 3-amino hemiasterlin [Compound 201] was tested. Which Span (MC38-hFolRα cells; MC38-FolRa cells, 72 hours) did it give?
A: 82%

Q: What about the EC50 (MC38-hFolRα cells; MC38-FolRa cells, 72 hours, read-out: EC50) of the same molecule?
A: 5.5 nM

Q: What about the “cell killing (in words)” value (MC38-hFolRα cells) of the same molecule?
A: good cell killing

Q: What about the “cell killing (in words)” value (Igrov1 cells) of the same molecule?
A: good cell killing

Q: And the Span (Igrov1 cells; Igrov1 cells, 120 hours)?
A: 88%

Q: What about the EC50 (Igrov1 cells; Igrov1 cells, 120 hours, read-out: EC50) of the same molecule?
A: 0.96 nM

Q: What about the “cell killing (in words)” value (A549 cells) of the same molecule?
A: good cell killing

Q: And the Span (A549 cells; A549 cells, 120 hours)?
A: 83%

Q: And the EC50 (A549 cells; A549 cells, 120 hours, read-out: EC50)?
A: 13 nM

Q: For `CN[C@H](C(=O)N[C@H](C(=O)N(C)[C@H](/C=C(\C)C(=O)O)C(C)C)C(C)(C)C)C(C)(C)c1cccc(NC(=O)OCc2ccc(O[C@@H]3O[C@H](C(=O)O)[C@@H](O)[C@H](O)[C@H]3O)c(CNC(=O)CCNC(=O)[C@H](CNC(=O)CCOCCOCCOCCOCCOCCOCCOCCOCCOCCOCCOCCOC)NC(=O)CCCCC(=O)N3Cc4ccccc4C#Cc4ccccc43)c2)c1` [Compound 108], which “linker-payload after 30 min with β-glucuronidase (in words)” value (E. coli β-Glucuronidase) is on record?
A: most of the (107) and (108) in the reaction mixture had disappeared

Q: With `CC[C@@]1(O)C(=O)OCc2c1cc1n(c2=O)Cc2c-1nc1cc(F)c(C)c3c1c2[C@@H](NC(=O)OCc1ccc(O[C@@H]2O[C@H](C(=O)O)[C@@H](O)[C@H](O)[C@H]2O)c(CNC(=O)CCNC(=O)[C@H](CNC(=O)CCOCCOCCOCCOCCOCCOCCOCCOCCOCCOCCOCCOC)NC(=O)CCCCC(=O)N2Cc4ccccc4C#Cc4ccccc42)c1)CC3` [Compound 107, DBCO β-Glucuronide-PEG12-Exatecan] as the molecule, how does the “linker-payload after 30 min with β-glucuronidase (in words)” value (E. coli β-Glucuronidase) read?
A: most of the (107) and (108) in the reaction mixture had disappeared

Q: `CC[C@@]1(O)C(=O)OCc2c1cc1n(c2=O)Cc2c-1nc1cc(F)c(C)c3c1c2[C@@H](N)CC3` [Compound 207, Exatecan] was tested. Which EC50 (MC38-hFolRα cells; 72 h) did it give?
A: 2.3 nM

Q: What about the Span (MC38-hFolRα cells; MC38-FolRa cells, 72 hours) of the same molecule?
A: 95%

Q: And the “cell killing (in words)” value (MC38-hFolRα cells)?
A: good cell killing

Q: And the EC50 (Igrov1 cells; Homo sapiens, IGROV-1, 120 h)?
A: 0.27 nM

Q: And the “cell killing (in words)” value (Igrov1 cells)?
A: good cell killing

Q: And the Span (Igrov1 cells; Igrov1 cells, 120 hours)?
A: 91%

Q: And the “potency relative to free Hemiasterlin (201)” value (Igrov1 cells; free payloads, statement for the three cell lines tested (Igrov1, MC38-hFolRα, A549))?
A: about 3 fold

Q: And the “cell killing (in words)” value (A549 cells)?
A: good cell killing

Q: And the Span (A549 cells; A549 cells, 120 hours)?
A: 99%

Q: And the EC50 (A549 cells; Homo sapiens, A549, 120 h)?
A: 3.4 nM
